Laboratory results taken from ChEMBL document CHEMBL1156428 (J Biol Chem, 2007).
pIC50: −log10 of the molar value. Activity calls are given as the source filed them. No cut-off for these calls is given here.

Tests used:
[1] = Inhibition of HIV1 RT D443N mutant mediated DNA-dependent DNA polymerization using chimeric substrate with RNA PPT primer extended at 3' end with upto 2 deoxyribonucleotides; parameters: species or system Human immunodeficiency virus 1
[2] = biological target: T1, Human immunodeficiency virus type 1 reverse transcriptase (Human immunodeficiency virus 1, UniProt Q72547); test: Inhibition of HIV1 RT mediated DNA-dependent DNA polymerization using chimeric substrate with RNA PPT primer extended at 3' end with upto 3 deoxyribonucleotides
[3] = biological target: T1, Human immunodeficiency virus type 1 reverse transcriptase; test: Inhibition of HIV1 RT mediated RNA-dependent minus-strand DNA synthesis after 5 mins by gel-based assay
[4] = biological target: T2, Human immunodeficiency virus type 1 reverse transcriptase (Human immunodeficiency virus 1, UniProt Q72547, K103N); test: Inhibition of HIV1 RT K103N mutant mediated DNA-dependent DNA polymerization using DNA PPT primed substrate by scintillation proximity assay
[5] = Inhibition of HIV1 RT D443N mutant mediated DNA-dependent DNA polymerization using chimeric substrate with RNA PPT primer extended at 3' end with upto 6 deoxyribonucleotides; parameters: species or system Human immunodeficiency virus 1
[6] = biological target: T1, Human immunodeficiency virus type 1 reverse transcriptase; test: Inhibition of HIV1 RT mediated DNA-dependent plus-strand DNA polymerization after 5 mins by gel-based assay
[7] = biological target: T1, Human immunodeficiency virus type 1 reverse transcriptase; test: Inhibition of HIV1 RT mediated DNA-dependent DNA polymerization using chimeric substrate with RNA PPT primer extended at 3' end with upto 2 deoxyribonucleotides
[8] = biological target: T1, Human immunodeficiency virus type 1 reverse transcriptase; test: Inhibition of HIV1 RT mediated DNA-dependent DNA synthesis initiation using RNA PPT primed substrate by scintillation proximity assay
[9] = Inhibition of HIV1 RT D443N mutant mediated DNA-dependent DNA polymerization using chimeric substrate with RNA PPT primer extended at 3' end with upto one deoxyribonucleotide; parameters: species or system Human immunodeficiency virus 1
[10] = biological target: T1, Human immunodeficiency virus type 1 reverse transcriptase; test: Inhibition of HIV1 RT mediated DNA-dependent DNA polymerization using chimeric substrate with RNA PPT primer
[11] = biological target: T2, Human immunodeficiency virus type 1 reverse transcriptase; test: Inhibition of HIV1 RT K103N mutant mediated DNA-dependent DNA polymerization using RNA/DNAM duplex primed substrate by scintillation proximity assay
[12] = test system: Human immunodeficiency virus 1; test: Inhibition of HIV1 RT D443N mutant mediated DNA-dependent DNA polymerization
[13] = biological target: T3, Human immunodeficiency virus type 1 reverse transcriptase (Human immunodeficiency virus 1, UniProt Q72547, Y181C); test: Inhibition of HIV1 RT Y181C mutant mediated DNA-dependent DNA polymerization using RNA PPT primed substrate by scintillation proximity assay
[14] = biological target: T1, Human immunodeficiency virus type 1 reverse transcriptase; test: Inhibition of HIV1 RT mediated DNA-dependent DNA synthesis initiation using RNA/DNAM duplex primed substrate by scintillation proximity assay
[15] = biological target: T3, Human immunodeficiency virus type 1 reverse transcriptase; test: Inhibition of HIV1 RT Y181C mutant mediated DNA-dependent DNA polymerization using DNA PPT primed substrate by scintillation proximity assay
[16] = biological target: T1, Human immunodeficiency virus type 1 reverse transcriptase; test: Inhibition of HIV1 RT mediated DNA-dependent DNA synthesis initiation using DNA PPT-primed substrate
[17] = biological target: T1, Human immunodeficiency virus type 1 reverse transcriptase; test: Inhibition of HIV1 RT mediated DNA-dependent DNA polymerization using chimeric substrate with RNA PPT primer extended at 3' end with upto one deoxyribonucleotide
[18] = Inhibition of HIV1 RT D443N mutant mediated DNA-dependent DNA polymerization using chimeric substrate with RNA PPT primer extended at 3' end with upto 12 deoxyribonucleotides; parameters: species or system Human immunodeficiency virus 1
[19] = biological target: T3, Human immunodeficiency virus type 1 reverse transcriptase; test: Inhibition of HIV1 RT Y181C mutant mediated DNA-dependent DNA polymerization using RNA/DNAM duplex primed substrate by scintillation proximity assay
[20] = Inhibition of HIV1 RT D443N mutant mediated DNA-dependent DNA polymerization using chimeric substrate with RNA PPT primer extended at 3' end with upto 3 deoxyribonucleotides; parameters: species or system Human immunodeficiency virus 1
[21] = biological target: T2, Human immunodeficiency virus type 1 reverse transcriptase; test: Inhibition of HIV1 RT K103N mutant mediated DNA-dependent DNA polymerization using RNA PPT primed substrate by scintillation proximity assay
[22] = Inhibition of HIV1 RT D443N mutant mediated DNA-dependent DNA polymerization using chimeric substrate with RNA PPT primer extended at 3' end with upto 9 deoxyribonucleotides; parameters: species or system Human immunodeficiency virus 1
[23] = Inhibition of HIV1 RT D443N mutant mediated DNA-dependent DNA polymerization using chimeric substrate with RNA PPT primer; parameters: species or system Human immunodeficiency virus 1
[24] = biological target: T1, Human immunodeficiency virus type 1 reverse transcriptase; test: Inhibition of HIV1 RT mediated DNA-dependent DNA polymerization
[25] = biological target: T1, Human immunodeficiency virus type 1 reverse transcriptase; test: Inhibition of HIV1 RT mediated DNA-dependent DNA polymerization using chimeric substrate with RNA PPT primer extended at 3' end with upto 12 deoxyribonucleotides
[26] = biological target: T1, Human immunodeficiency virus type 1 reverse transcriptase; test: Inhibition of HIV1 RT mediated DNA-dependent DNA polymerization using chimeric substrate with RNA PPT primer extended at 3' end with upto 9 deoxyribonucleotides

Molecule `CCc1cc(NCc2nc3c(Cl)ccc(Cl)c3o2)c(O)nc1C` [L-697661] has a pIC50 [1] of 6.64, a pIC50 [2] of 6.57 and a pIC50 [3] of 5.85. For the same molecule, the pIC50 [4] was under 5.30, the pIC50 [5] was 6.57 and the pIC50 [6] was 7.46. It also gave a pIC50 [7] of 6.55, a pIC50 [8] of 6.37 and a pIC50 [9] of 6.62. The pIC50 [10] was 6.55, the pIC50 [11] was under 5.30 and the Activity [12] was “inactive”. The pIC50 [13] was under 5.30, the pIC50 [14] was 6.64 and the pIC50 [15] was under 5.30. It also gave a pIC50 [16] of under 5.00, a pIC50 [17] of 6.66 and a pIC50 [18] of 6.82. It also gave a pIC50 [19] of under 5.30, a pIC50 [20] of 6.62 and a pIC50 [21] of under 5.30. The pIC50 [22] was 6.89, the pIC50 [23] was 6.36 and the pIC50 [24] was 6.54. For the same molecule, the pIC50 [25] was 6.89 and the pIC50 [26] was 6.49.
In the case of `Cc1cn([C@H]2C[C@H](N=[N+]=[N-])[C@@H](CO[P@](=O)(O)O[P@](=O)(O)OP(=O)(O)O)O2)c(=O)[nH]c1=O` [ZIDOVUDINE TRIPHOSPHATE], the pIC50 [8] was 6.49 and the pIC50 [14] was 6.44.
